Where a chain is given by its changes, count along the chain named.
Columns and labels:
in vitro = settings: human, plasma
PC9 cells = assay: cells; settings: Homo sapiens, PC-9, 48 h, read-out: % Viability PC9
GPX4^U46C = biological target: T1, GPX4^U46C (Homo sapiens, UniProt P36969, U73C); assay: Intact protein MALDI MS analysis; assay type: binding; settings: 150 μM
T1 construct: made in house; host or cells: E. coli BL21-Gold (DE3)
T1 sequence (P36969 1-170 isoform P36969-2 U46C): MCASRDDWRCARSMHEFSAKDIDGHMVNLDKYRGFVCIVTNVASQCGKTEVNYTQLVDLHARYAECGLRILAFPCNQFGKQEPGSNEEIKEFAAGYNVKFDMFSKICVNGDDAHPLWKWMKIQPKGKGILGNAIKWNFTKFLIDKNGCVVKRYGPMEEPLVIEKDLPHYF

GPX4 = biological target: T2, GPX4 (Homo sapiens, UniProt P36969); assay: Cellular thermal shift assay (CETSA), GPX4; assay type: cell-based; set-up: To prepare the cell lysate containing native GPX4, A-673 cells were cultured; endogenous in cells; host or cells: A-673 cell lysate; settings: 10 μM compound for 1 h
T2 sequence (P36969 1-170 isoform P36969-2): T1 sequence (P36969 1-170 isoform P36969-2 U46C) with C46U

GFP-GPX4^WT = biological target: T3, GFP-GPX4^WT (Homo sapiens, UniProt P36969); assay: Degradation of GPX4 and GFP-GPX4^WT with MG-132; assay type: cell-based; settings: 1.0 μM ± MG-132 (10 μM), 18 hours
T3 construct: expressed in transfected cells; host or cells: HT-1080 overexpressing GFP-GPX4^WT
T3 sequence (P36969 28-197): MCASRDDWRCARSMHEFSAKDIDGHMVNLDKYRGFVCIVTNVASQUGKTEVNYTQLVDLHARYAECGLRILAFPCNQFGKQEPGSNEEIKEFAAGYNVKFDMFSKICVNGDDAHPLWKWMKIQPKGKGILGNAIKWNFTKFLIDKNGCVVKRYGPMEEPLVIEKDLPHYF

GPX1 = biological target: T4, GPX1 (Homo sapiens, UniProt P07203); assay: Degradation of endogenous GPX1 in HT-1080 cells; assay type: cell-based; set-up: endogenous in cells
T4 sequence (P07203 1-203): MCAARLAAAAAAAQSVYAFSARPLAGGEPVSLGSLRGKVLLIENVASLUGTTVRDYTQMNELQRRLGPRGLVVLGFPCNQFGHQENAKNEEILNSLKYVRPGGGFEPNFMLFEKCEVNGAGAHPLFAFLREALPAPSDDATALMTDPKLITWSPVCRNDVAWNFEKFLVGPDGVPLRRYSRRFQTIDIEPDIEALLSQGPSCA

GFP-GPX4^K125R_K127R = biological target: T5, GFP-GPX4^K125R_K127R (Homo sapiens, UniProt P36969, K152R/K154R); assay: Degradation of GFP-GPX4^K125R_K127R in HT-1080 cells; assay type: cell-based
T5 construct: expressed in transfected cells
T5 sequence (P36969 28-197 K152R/K154R): as the sequence (P36969 28-197) above, with K125R, K127R counted along it

Structure (SMILES) | half-life (in vitro) | viability at 10 µM (PC9 cells) | covalent binding to GPX4^U46C (mass shift) (GPX4^U46C) | thermal stability of GPX4 (GPX4) | GPX4 degradation with MG-132 (GFP-GPX4^WT) | GPX1 degradation (GPX1) | selectivity in cancer cells compared to PBMCs (PBMCs) | degradation of GFP-GPX4^K125R_K127R (GFP-GPX4^K125R_K127R)
COc1cccc2[nH]c(C(=O)n3ccnc3)cc12 [LOC1886, reference compound] | 10.8 min | – | – | – | – | – | – | –
Cn1nc(C(=O)NC(C)(C)COC(=O)CCl)c2ccc(Br)cc21 [QW-314] | 2.3 min | 62% | – | – | – | – | – | –
CC(C)(COC(=O)CCl)NC(=O)c1nn(Cc2cc(Cl)cc(Cl)c2)c2cc(-c3ccc(N4CCOCC4)c(Cl)c3)ccc12 [QW-852] | – | – | lower potency than RSL3 to covalently bind to GPX4^U46C | stabilizing the protein | effectively blocked by MG-132 | less effective at degrading GPX1 | Over 10 fold | but not by QW-852

— patent US20250248979A1, “NOVEL GPX4 INHIBITORS AND USES THEREOF” (THE TRUSTEES OF COLUMBIA UNIVERSITY IN THE CITY OF NEW YORK, priority 2022, published 2025)
